Experimental findings from patent publication US20230074545A1, “TREATMENT OF CANCER WITH CDK12/13 INHIBITORS” (Kinnate Biopharma Inc., priority 2019, published 2023) are described below.

The subject of assay [1] is RNA polymerase II. In words: Ex vivo RNA polymerase II phosphorylation (pS2/S2) in human PBMCs. Conditions: PBMC, hPBMCs, 2 hours. Type of assay: cell-based. The procedure: (§1) The ability of the compounds to inhibit phosphorylation of peripheral blood mononuclear cells (PBMCs) was analyzed ex vivo. Compounds 1 and 4 were dosed at concentrations between 4 μM to 126.4 pM (0.5 log serial dilutions) for 2 hours. The amount of phosphorylated RNA polymerase II and the total amount of RNA polymerase II was analyzed. The values were normalized by taking the ratio of the phosphorylated RNA polymerase II to the total RNA polymerase II (pS2/S2).

The next assay relates to HCC70 cells. Kind of assay: HCC70 cell proliferation (CellTiter-Glo). Type of assay: cell-based. Conditions: Homo sapiens, read-out: Inhibition of Proliferation of HCC70 Cells (IC50 in M). The procedure:
HCC70 was the cell line used as a model of triple-negative breast cancer (TNBC). This cell line was obtained from ATCC and was initiated from a primary ductal carcinoma in 1992 (Catalog #CRL-2315; mammary gland primary ductal carcinoma). The HCC-70 tumor cell line was maintained in vitro as a monolayer culture in RPMI-1640 medium supplemented with 10% heat inactivated fetal bovine serum at 37° C. in an atmosphere of 5% CO2 in air.
Representative compounds were tested at different concentrations (from 4 μM to 126.4 pM; 0.5 log serial dilutions) for their ability to inhibit the proliferation of HCC70 cells. Cells were grown in ATCC-formulated RPMI-1640 Medium (ATCC 30-2001)+10% FBS. The cells were cultured at 37° C. in a humidified chamber in the presence of 5% CO2. Proliferation assays were conducted over a 72 hour time period.
(§2) Cells were cultured and maintained as described above, with cells always fed on the day prior to assay. Assays were run with a 2 hour compound exposure followed by a washout and then a 72 hour proliferation time or exposed to the test compounds for 72 hours with no washout of compound. DMSO was used as a control in all wells not receiving test compound and DMSO wells were used for plate normalization. Proliferation and survival of cells was quantified based on the amount of total ATP following cell lysis as determined by using a standard assay kit used according to manufacturer's instructions. Experiments were performed in the same media used by each cell type for growth and maintenance. Cells (5×10^4) were plated in 96 well plates for compound exposure. CellTiter-Glo® (Promega Corporation, Madison, Wis. USA) was used to assess the anti-proliferative effects of the compounds following manufacturer's directions and utilizing the reagents supplied with the CellTiter-Glo® kit.
On the technique in general: In ATP-based viability assays light output follows the ATP content of the culture.

The target in another assay is T1, CDK9 (Homo sapiens, UniProt P50750).
T1 construct: either as full-length or enzymatically active fragments; purchased ProQinase GmbH (Reaction Biology); host or cells: Sf9 insect cells or E. coli
Kind of assay: Radiometric kinase assay (33PanQinase). Conditions: read-out: Inhibition of CDK Activity (molar inhibition in a radiometric assay). Type of assay: biochemical. On the procedure: (§3) The compounds 1-5 (see Table 1) were assayed for kinase activity at ProQinase (ProQinase GmbH, Reaction Biology; Freiburg, Germany) using their commercially available radiometric kinase assay services. Briefly, the compounds were provided as solids and were dissolved to 1×10^−03 M/100% DMSO stock solutions on the day of assay. All protein kinases were provided by ProQinase and were expressed in Sf9 insect cells or in E. coli as recombinant GST-fusion proteins or His-tagged proteins, either as full-length or enzymatically active fragments. All kinases were produced from human cDNAs and purified by either GSH-affinity chromatography or immobilized metal. The purity of the protein kinases was examined by SDS-PAGE/Coomassie staining, the identity was checked by mass spectroscopy. A radiometric protein kinase assay (^33PanQinase® Activity Assay) was used for measuring the kinase activity of the protein kinase. All kinase assays were performed in 96-well FlashPlates™ from PerkinElmer (Boston, Mass., USA) in a 50 microliter reaction volume. The reaction cocktail was pipetted in four steps in the following order: 1) 25 microliter of assay buffer (standard buffer/[gamma-^33P]-ATP); 2) 10 microliter of ATP solution (in H2O); 3) 5 microliter of test compound (in 10% DMSO); 4) 10 microliter of enzyme/substrate mixture.
(§4) As a parameter for assay quality, the Z′-factor (Zhang et al., J. Biomol. Screen. 2: 67-73, 1999) for the low and high controls of each assay plate (n=8) was used. ProQinase's criterion for repetition of an assay plate is a Z′-factor below 0.4.

The target in the next assay is T2, CDK12 (Homo sapiens, UniProt Q9NYV4).
T2 construct: either as full-length or enzymatically active fragments; purchased ProQinase GmbH (Reaction Biology)
Kind of assay: Radiometric kinase assay (33PanQinase). Format: biochemical. Particulars: read-out: Inhibition of CDK Activity (molar inhibition in a radiometric assay). The procedure: as §3, §4

The target of another assay is T3, CDK7 (Homo sapiens, UniProt P50613).
T3 construct: either as full-length or enzymatically active fragments; purchased ProQinase GmbH (Reaction Biology); host or cells: Sf9 insect cells or E. coli
Kind of assay: Radiometric kinase assay (33PanQinase). Type of assay: biochemical. Particulars: read-out: Inhibition of CDK Activity (molar inhibition in a radiometric assay). On the procedure:
as §3, §4

The next assay has as its target T4, CDK2 (Homo sapiens, UniProt P24941).
T4 construct: either as full-length or enzymatically active fragments; purchased ProQinase GmbH (Reaction Biology); host or cells: Sf9 insect cells or E. coli
Kind of assay: Radiometric kinase assay (33PanQinase). Format: biochemical. Conditions: read-out: Inhibition of CDK Activity (molar inhibition in a radiometric assay). The procedure: as §3, §4

The next assay has as its target T5, CDK13 (Homo sapiens, UniProt Q14004).
T5 construct: either as full-length or enzymatically active fragments; purchased ProQinase GmbH (Reaction Biology)
In words: Radiometric kinase assay (33PanQinase). Type of assay: biochemical. Conditions: read-out: Inhibition of CDK Activity (molar inhibition in a radiometric assay). On the procedure: as §3, §4

In the next assay the test system is OVCAR-3 cells. In words: OVCAR-3 cell proliferation (CellTiter-Glo). Format: cell-based. Conditions: Homo sapiens, read-out: Inhibition of proliferation of OVCAR3 cells (IC50 in M).
Description: OVCAR-3 was used as the cell line to model for ovarian cancer in vitro and in vivo. This cell line was obtained from ATCC (Catalog #HTB-161) and is an adenocarcinoma line from the malignant ascites of a patient with progressive adenocarcinoma of the ovary and embodies a preclinical model of high-grade, serous ovarian cancer (HGSOC). OVCAR-3 has been deemed an appropriate model system in which to study drug resistance in ovarian cancer, and the presence of hormone receptors should be useful for the evaluation of hormonal therapy. OVCAR-3 is resistant to clinically relevant concentrations of adriamycin, melphalan and cisplatin.
Compounds 1-5 were tested at different concentrations (from 4 μM to 126.4 pM; 0.5 log serial dilutions) for their ability to inhibit the proliferation of OVCAR-3 cells. Cells were grown in ATCC-formulated RPMI-1640 Medium (ATCC 30-2001)+10% FBS. The cells were cultured at 37° C. in a humidified chamber in the presence of 5% CO2. Proliferation assays were conducted over a 72 hour time period.
as §2

Assay [2] has as its system RNA polymerase II. Kind of assay: Ex vivo RNA polymerase II phosphorylation (pS2/S2) in cynomolgus PBMCs. Format: cell-based. Conditions: Macaca fascicularis, PBMC; moPBMCs, 2 hours. On the procedure:
as §1

The mark [3] stands for this setting: HCC70 (no washout), exposed for 72 hours.
[4] abbreviates: HCC70 (w/washout), 2 hour exposure, washout, 72 hour proliferation.
Setting [5] is: OVCAR-3 (no washout), exposed for 72 hours.
The mark [6] stands for this setting: OVCAR-3 (w/washout), 2 hour exposure, washout, 72 hour proliferation.

Where two headings read alike, the source gives them in different places.

T3 sequence (P50613 whole entry, the tested form may be a part): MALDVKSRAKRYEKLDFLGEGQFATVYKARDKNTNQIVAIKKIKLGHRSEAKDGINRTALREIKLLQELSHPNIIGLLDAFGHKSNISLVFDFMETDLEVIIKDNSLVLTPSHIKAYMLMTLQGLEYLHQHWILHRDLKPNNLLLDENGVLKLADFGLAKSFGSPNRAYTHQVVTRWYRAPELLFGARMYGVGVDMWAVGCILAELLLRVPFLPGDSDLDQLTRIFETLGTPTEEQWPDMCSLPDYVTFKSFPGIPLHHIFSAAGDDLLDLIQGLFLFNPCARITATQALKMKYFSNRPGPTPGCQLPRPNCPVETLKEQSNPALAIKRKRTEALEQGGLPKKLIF
T3 sequence (P51946 whole entry partner, the tested form may be a part): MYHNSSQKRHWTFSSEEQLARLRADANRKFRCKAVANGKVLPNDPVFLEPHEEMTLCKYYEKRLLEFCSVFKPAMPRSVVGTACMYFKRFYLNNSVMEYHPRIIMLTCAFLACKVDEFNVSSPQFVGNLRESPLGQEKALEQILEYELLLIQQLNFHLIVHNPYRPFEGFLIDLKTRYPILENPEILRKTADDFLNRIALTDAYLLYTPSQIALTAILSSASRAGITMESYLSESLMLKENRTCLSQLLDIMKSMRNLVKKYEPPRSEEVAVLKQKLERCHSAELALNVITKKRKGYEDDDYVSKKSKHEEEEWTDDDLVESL
T3 sequence (P51948 whole entry partner, the tested form may be a part): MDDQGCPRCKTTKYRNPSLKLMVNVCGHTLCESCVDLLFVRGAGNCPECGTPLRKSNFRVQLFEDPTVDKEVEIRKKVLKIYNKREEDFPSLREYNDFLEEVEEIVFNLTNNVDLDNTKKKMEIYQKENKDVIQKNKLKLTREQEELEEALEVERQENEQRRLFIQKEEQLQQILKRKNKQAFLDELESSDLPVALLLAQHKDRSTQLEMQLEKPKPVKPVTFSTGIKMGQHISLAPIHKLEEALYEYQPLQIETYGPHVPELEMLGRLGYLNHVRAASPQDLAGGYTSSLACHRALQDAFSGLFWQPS
T2 sequence (Q9NYV4 whole entry, the tested form may be a part): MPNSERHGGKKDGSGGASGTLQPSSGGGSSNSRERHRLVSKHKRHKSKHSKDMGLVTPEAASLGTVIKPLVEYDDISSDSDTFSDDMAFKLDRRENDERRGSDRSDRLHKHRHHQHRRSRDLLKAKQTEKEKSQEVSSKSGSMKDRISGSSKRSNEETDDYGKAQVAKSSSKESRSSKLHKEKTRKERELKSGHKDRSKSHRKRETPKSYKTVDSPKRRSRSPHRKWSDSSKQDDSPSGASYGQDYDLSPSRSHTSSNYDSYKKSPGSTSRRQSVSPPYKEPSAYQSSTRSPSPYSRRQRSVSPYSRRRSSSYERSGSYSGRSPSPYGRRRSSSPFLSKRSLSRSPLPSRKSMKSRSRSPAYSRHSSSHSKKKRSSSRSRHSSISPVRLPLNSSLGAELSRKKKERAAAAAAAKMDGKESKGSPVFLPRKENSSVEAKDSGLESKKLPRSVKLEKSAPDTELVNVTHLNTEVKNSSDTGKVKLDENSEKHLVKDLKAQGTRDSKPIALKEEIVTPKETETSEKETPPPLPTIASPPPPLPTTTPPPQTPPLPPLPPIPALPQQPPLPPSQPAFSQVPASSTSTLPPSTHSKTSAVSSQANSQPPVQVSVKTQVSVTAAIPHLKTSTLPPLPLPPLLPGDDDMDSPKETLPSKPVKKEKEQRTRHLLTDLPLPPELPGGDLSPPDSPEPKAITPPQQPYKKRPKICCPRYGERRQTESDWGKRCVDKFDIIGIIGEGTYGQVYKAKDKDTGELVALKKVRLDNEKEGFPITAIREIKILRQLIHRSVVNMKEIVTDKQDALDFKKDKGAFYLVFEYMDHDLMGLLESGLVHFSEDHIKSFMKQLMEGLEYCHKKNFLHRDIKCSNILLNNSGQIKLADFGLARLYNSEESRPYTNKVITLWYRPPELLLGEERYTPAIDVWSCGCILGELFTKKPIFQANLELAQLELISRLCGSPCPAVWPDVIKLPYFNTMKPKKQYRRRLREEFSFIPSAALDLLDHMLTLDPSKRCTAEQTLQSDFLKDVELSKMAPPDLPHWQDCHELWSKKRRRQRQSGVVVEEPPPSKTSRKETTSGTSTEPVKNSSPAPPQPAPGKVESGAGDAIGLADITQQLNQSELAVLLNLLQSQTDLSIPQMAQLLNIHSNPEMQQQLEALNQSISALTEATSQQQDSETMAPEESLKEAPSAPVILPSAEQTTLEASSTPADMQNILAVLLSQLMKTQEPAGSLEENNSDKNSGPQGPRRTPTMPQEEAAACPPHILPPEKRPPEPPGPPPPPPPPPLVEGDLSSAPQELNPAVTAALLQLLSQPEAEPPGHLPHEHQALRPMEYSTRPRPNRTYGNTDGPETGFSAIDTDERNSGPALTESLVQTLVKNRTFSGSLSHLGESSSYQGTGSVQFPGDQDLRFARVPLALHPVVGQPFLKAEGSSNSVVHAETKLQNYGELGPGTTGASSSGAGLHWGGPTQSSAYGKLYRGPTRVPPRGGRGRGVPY
T2 sequence (O75909 whole entry partner, the tested form may be a part): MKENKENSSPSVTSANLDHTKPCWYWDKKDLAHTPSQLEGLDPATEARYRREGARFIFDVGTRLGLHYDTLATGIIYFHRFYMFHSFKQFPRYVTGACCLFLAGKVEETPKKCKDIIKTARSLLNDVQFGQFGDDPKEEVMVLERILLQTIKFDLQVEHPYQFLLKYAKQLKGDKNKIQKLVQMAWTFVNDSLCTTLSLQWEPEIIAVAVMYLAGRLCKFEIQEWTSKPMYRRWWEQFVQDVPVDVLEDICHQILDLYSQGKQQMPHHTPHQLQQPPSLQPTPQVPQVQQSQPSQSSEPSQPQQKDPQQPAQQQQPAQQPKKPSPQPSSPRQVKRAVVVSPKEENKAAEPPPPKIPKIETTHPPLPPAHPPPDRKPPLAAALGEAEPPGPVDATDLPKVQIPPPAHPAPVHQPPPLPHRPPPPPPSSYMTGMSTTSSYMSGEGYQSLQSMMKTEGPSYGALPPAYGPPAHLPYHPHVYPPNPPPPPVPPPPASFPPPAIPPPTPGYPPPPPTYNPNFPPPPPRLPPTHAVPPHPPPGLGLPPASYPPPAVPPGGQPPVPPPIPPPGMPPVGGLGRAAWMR
T5 sequence (Q14004 whole entry, the tested form may be a part): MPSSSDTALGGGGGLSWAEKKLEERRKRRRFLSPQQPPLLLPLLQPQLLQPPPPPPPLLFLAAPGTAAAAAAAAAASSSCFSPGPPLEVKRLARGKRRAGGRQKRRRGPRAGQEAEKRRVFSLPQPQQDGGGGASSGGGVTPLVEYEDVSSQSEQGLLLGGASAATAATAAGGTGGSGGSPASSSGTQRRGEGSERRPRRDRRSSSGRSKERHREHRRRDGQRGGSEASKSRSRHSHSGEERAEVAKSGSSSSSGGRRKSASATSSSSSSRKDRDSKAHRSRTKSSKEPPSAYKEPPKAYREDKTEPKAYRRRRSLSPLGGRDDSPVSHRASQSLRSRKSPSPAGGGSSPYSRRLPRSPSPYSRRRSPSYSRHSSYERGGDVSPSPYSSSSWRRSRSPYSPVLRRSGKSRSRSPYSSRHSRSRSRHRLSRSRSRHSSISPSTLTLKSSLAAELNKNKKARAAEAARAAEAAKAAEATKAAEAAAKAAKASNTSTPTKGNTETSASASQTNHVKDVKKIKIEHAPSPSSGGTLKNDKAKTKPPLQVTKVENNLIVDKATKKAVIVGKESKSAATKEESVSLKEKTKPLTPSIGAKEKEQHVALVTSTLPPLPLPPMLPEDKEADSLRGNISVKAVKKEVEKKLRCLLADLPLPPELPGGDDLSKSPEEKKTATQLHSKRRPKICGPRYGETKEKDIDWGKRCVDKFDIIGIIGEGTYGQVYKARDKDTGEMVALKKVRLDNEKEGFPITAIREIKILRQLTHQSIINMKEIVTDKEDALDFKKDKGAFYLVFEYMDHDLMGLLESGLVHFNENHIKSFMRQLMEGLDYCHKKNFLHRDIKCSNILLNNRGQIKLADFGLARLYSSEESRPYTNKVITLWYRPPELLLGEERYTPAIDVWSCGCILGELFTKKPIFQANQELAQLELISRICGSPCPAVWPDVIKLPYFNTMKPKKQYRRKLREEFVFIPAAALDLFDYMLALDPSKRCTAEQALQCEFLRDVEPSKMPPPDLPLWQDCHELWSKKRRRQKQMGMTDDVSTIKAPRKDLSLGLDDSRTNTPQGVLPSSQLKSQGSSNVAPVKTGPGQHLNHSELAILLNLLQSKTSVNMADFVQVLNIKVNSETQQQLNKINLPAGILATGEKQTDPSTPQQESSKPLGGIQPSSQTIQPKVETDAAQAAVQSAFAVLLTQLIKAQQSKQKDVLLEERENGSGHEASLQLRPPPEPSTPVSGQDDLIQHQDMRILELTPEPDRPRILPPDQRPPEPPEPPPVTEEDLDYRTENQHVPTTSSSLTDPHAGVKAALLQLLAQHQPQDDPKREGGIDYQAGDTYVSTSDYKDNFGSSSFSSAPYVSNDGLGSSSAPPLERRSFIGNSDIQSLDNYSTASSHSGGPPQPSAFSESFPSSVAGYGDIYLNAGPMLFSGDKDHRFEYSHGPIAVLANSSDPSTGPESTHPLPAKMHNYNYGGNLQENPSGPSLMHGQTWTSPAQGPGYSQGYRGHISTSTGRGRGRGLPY
T5 sequence (O75909 whole entry partner, the tested form may be a part): as the sequence (O75909 whole entry partner, the tested form may be a part) above

On to `C=CC(=O)Nc1ccc(C(=O)N2CC[C@@H](Nc3ncc(Cl)c(OC)n3)C2)cc1` [Compound 1, (R)-N-(4-(3-((5-chloro-4-methoxypyrimidin-2-yl)amino)pyrrolidine-1-carbonyl)phenyl)acrylamide], for which the IC50 in the assay on RNA polymerase II [1] came out at 19.3 nM; in the assay on HCC70 cells (setting [3]), 5.1 nM; in the assay with HCC70 cells (setting [4]) it was 14.1 nM; at CDK9, 288 nM; on CDK12, 21.3 nM; on CDK7, 1100 nM. In addition, the IC50 came to 1150 nM at CDK2; 25.8 nM at CDK13; 4.45 nM in the assay with OVCAR-3 cells (setting [5]); 82.4 nM in the assay on OVCAR-3 cells (setting [6]); 21.6 nM with RNA polymerase II [2].

In the case of `C=CC(=O)Nc1ccc(C(=O)N2CC[C@@H](Nc3ncc(C#N)cn3)C2)cc1` [Compound 4, (R)-N-(4-(3-((5-cyanopyrimidin-2-yl)amino)pyrrolidine-1-carbonyl)phenyl)acrylamide], the IC50 in the assay on RNA polymerase II [1] turned out to be 167 nM; in the assay with HCC70 cells (setting [3]), 32.3 nM; in the assay on HCC70 cells (setting [4]) it was 134 nM; on CDK9, 3970 nM; at CDK12 it was 131 nM; at CDK7, 6960 nM. Besides, the IC50 on CDK2 was determined as 7550 nM; at CDK13, 293 nM; in the assay on OVCAR-3 cells (setting [5]), 31 nM; with OVCAR-3 cells (setting [6]), 179 nM; with RNA polymerase II [2], 181 nM.
